Results on three compounds are retold here after publication PMC11312998, “Molecular Pro-Apoptotic Activities of Flavanone Derivatives in Cyclodextrin Complexes: New Implications for Anticancer Therapy” (International Journal of Molecular Sciences, 2024).

Experiment [1] has as its system MDA-MB-231. In words: Superoxide anion generation, DHE probe. The format is cell-based, human. The conditions noted are these: IC50 concentration, 24 h. As to the method:
The level of superoxide anion (O2^•−) was determined by microplate spectrofluorimetry with dihydroethidium (hydroethidine, DHE) (Life Technologies, Carlsbad, CA, USA), which is the most commonly used fluorogenic probe for monitoring the intracellular production of superoxide anion O2^•− [41]. […] Thanks to this shift, DHE can be used as a sensitive probe for cellular ROS. The reaction between superoxide and DHE generates a highly specific red fluorescent product, 2-hydroxyethidium (2-OH-E^+).
The cells were seeded in black 96-well fluorometric microplates at a density of 10 × 10^3 cells per well. […] After incubation, the medium was removed, the cell monolayer in the wells was washed twice with HBSS (140 mM NaCl, 5 mM KCl, 0.8 mM MgCl2, 1.8 mM CaCl2, 1 mM Na2HPO4, 10 mM HEPES and 1% glucose) and 50 μL of DHE solution in HBSS was added to each well (final probe concentration 5 μmol/L). Cells were incubated with the probe for 30 min in the dark in an incubator (37 °C), and then fluorescence was measured. The measurement was performed at the following excitation and fluorescence emission wavelengths: λex = 498 nm/λem = 582 nm. Fluorescence measurements were made on a Perkin-Elmer LS-5B spectrofluorometer (MA, USA). Fluorescence intensity values for control cells were arbitrarily set as 100%. The results are presented as percentages of control cell values, calculated relative to the fluorescence intensity of the controls (100%): sample fluorescence was calculated as Δf in relation to the controls.

Experiment [2] concerns breast cancer cells (MCF-7, MDA-MB-231 and HCC38) and endometrial cancer cells (Ishikawa, Hec-1-A). Kind of experiment: MTT cytotoxicity assay, summary over the cell lines. The format is cell-based, human. Particulars: Homo sapiens; range over the five cancer lines; read-out: IC50, range depending on the cancer line. As to the method: (§1) Cell viability was determined using the metabolic microplate spectrophotometric assay with Methylthiazolyl diphenyltetrazolium bromide (MTT), i.e., 3-(4,5-Dimethyl-2-thiazolyl)-2,5-diphenyl-2H-tetrazolium bromide (Sigma-Aldrich; St. Louis, MO, USA). The anticancer activity of the investigated compounds was evaluated in vitro on the basis of their ability to inhibit the proliferation of various cancer cells. The appropriate number of cells for a given cell line (6–8 × 10^3 cells/mL) were seeded into sterile, colorless 96-well microplates. After 24 h of culture, specific wells of the microplate were treated with test compounds (10–200 µmol/L concentration) and incubated in a CO2 incubator for 24 h. The medium was then removed, the cell monolayer was washed twice with sterile PBS solution and fresh culture medium was added to the wells of the microplate.
(§2) After 48 h of cell culture, the MTT test was conducted. In each well of the microplate, 50 µL of tetrazolium salt solution (final concentration 0.05 mg/mL) was added. The microplate was then placed in a CO2 incubator for 3–4 h (depending on the cell line). Following incubation, 100 µL of DMSO (dimethyl sulfoxide, Sigma-Aldrich, St. Louis, MO, USA) was added to the microplate wells to dissolve the purple formazan crystals formed in the environment of living cells. The absorbance of the formazan solution was read at a wavelength of λ = 580 nm and a reference wavelength of λ = 720 nm after gentle mixing (Biotek Power Wave HT, Biotek Instruments, Winooski, VT, USA).
The percentage of live cells was calculated by comparing the absorbance value of the tested samples with that of the control (cells not treated with compounds). Control absorbance was arbitrarily considered to be 100%. […] Moreover, cisplatin (Sigma-Aldrich, St. Louis, MO, USA) was used as a reference compound, and identical incubation conditions were used as described above.
On the technique in general: Formazan colour is commonly taken as a measure of viable cells.

The subject of experiment [3] is MDA-MB-231. In words: Nitric oxide (RNS) generation, DAF-FM diacetate probe. The format is cell-based, human. Particulars: IC50 concentration, 24 h. As to the method:
Diaminofluorescein-FM diacetate (DAF-FM diacetate, Invitrogen, Carlsbad, CA, USA), is a widely employed cell permeant fluorescent reagent for the detection and quantification of reactive nitrogen species (RNS), particularly nitric oxide (NO). […] However, upon reaction with NO, it undergoes a transformation that yields a highly fluorescent benzotriazole derivative (excitation/emission maxima: λex = 495, λem = 515 nm).
The cells were seeded in black 96-well fluorometric microplates at a density of 10 × 10^3 cells per well. […] After incubation with the compounds, the medium was removed, the cell monolayer in the wells was washed twice with HBSS (140 mM NaCl, 5 mM KCl, 0.8 mM MgCl2, 1.8 mM CaCl2, 1 mM Na2HPO4, 10 mM HEPES and 1% glucose) and 50 μL of DAF-FM diacetate solution in HBSS was added to each well (final probe concentration 5 μmol/L). Cells were incubated with the probe for 30 min in the dark in an incubator (37 °C). After incubation, the probe was removed and replaced with fresh HBSS buffer and then incubated for an additional 30 min to allow for complete de-esterification of the intra cellular diacetates. After this time, the fluorescence was measured. The measurement was performed at the following excitation and fluorescence emission wavelengths: λex = 495 nm/λem = 515 nm. Fluorescence was measured on a Perkin-Elmer LS-5B spectrofluorometer (MA, USA). Fluorescence intensity values for control cells were arbitrarily set as 100%. The results are presented as percentages of control cells calculated on the basis of a comparison of the fluorescence intensity ratio of test samples and controls (100%) (fluorescence of samples was calculated as Δf in relation to the control).

In the next experiment the test system is MCF-7. In words: MTT cytotoxicity assay. It is filed as cell-based. The conditions noted are these: Homo sapiens, MCF7, 24 h incubation, mean ± SEM, read-out: Cytotoxic effect, IC50. On the procedure:
as §1, §2
(§3) The percentage of live cells was calculated by comparing the absorbance value of the tested samples with that of the control (cells not treated with compounds). Control absorbance was arbitrarily considered to be 100%.
(§4) In order to determine the contribution of ROS to the cytotoxicity of the tested compounds, the cells were pre-incubated for 1 h with the antioxidant vitamin E (Trolox, Sigma-Aldrich; St. Louis, MO, USA). Cells were seeded into sterile, colorless 96-well microplates at a concentration of 6–8 × 10^3 cells/mL, depending on the cell line. After 24 h of culture, Trolox was added at a final concentration of 50 μM/well. After 1 h of incubation, the antioxidant was washed off, then appropriate concentrations of test compounds (10–200 µmol/L concentration) were added to fresh cell culture medium and incubated for 24 h. The MTT test was then performed under identical experimental conditions, as described in Section 3.1.2.

Experiment [4] relates to MDA-MB-231. Kind of experiment: MTT cytotoxicity assay. It is filed as cell-based. Particulars: Homo sapiens, 24 h incubation, mean ± SEM, read-out: Cytotoxic effect, IC50. As to the method:
as §1, §2, §3, §4

The subject of another experiment is HCC38. Kind of experiment: MTT cytotoxicity assay. The format is cell-based. The conditions noted are these: Homo sapiens, 24 h incubation, mean ± SEM, read-out: Cytotoxic effect, IC50. As to the method: as §1, §2, §3, §4
The next experiment concerns Hec-1-A. Kind of experiment: MTT cytotoxicity assay. The format is cell-based. The conditions noted are these: Homo sapiens, 24 h incubation, mean ± SEM, read-out: Cytotoxic effect, IC50. As to the method: as §1, §2, §3, §4

As a reminder, the IC50 is the concentration at which inhibition is half-maximal. On to `O=C1/C(=C/c2ccccc2)COc2ccccc21` [Compound 1], for which the “greater superoxide anion level relative to control (DHE probe)” value in the experiment with MDA-MB-231 [1] was “approximately 20%”. The IC50 in experiment [2] was 10 to 18 µM; in the experiment with MCF-7 it was 10.2 ± 0.9 µM; with MDA-MB-231 [4] it was 12.6 ± 1.1 µM; in the experiment with HCC38, 15.7 ± 0.8 µM; with Hec-1-A, 18.5 ± 1.2 µM. In addition, in the experiment on MDA-MB-231 [3], the “increase in nitric oxide level (DAF-FM)” value is reported as “approximately 20%”.

In the case of `COc1cccc(/C=C2/C(=O)c3ccccc3OC2c2ccccc2)c1` (stereo not drawn) [Compound 3], the “greater superoxide anion level relative to control (DHE probe)” value with MDA-MB-231 [1] is recorded as “approximately 20%”. Further, the IC50 is 15 to 27 µM in experiment [2]; 16.4 ± 2.3 µM in the experiment on MCF-7; 15.2 ± 3.1 µM with MDA-MB-231 [4]; 20.9 ± 1.5 µM in the experiment on HCC38; 26.9 ± 2.3 µM in the experiment on Hec-1-A. For the same compound, the “increase in nitric oxide level (DAF-FM)” value with MDA-MB-231 [3] is given as “approximately 15%”.

`O=C1/C(=C/c2ccccc2)C(c2ccccc2)Oc2ccccc21` (stereo not drawn) [Compound 5]: the “greater superoxide anion level relative to control (DHE probe)” value in the experiment on MDA-MB-231 [1] was ~30%. Besides, the IC50 in experiment [2] was 18 to 36 µM; with MCF-7, 25.1 ± 4.2 µM; in the experiment with MDA-MB-231 [4], 23.3 ± 1.4 µM; with HCC38, 25.6 ± 0.9 µM; in the experiment with Hec-1-A, 35.9 ± 2.4 µM. Besides, the “increase in nitric oxide level (DAF-FM)” value in the experiment with MDA-MB-231 [3] is listed as “approximately 15%”.
